Marks after values point to notes of the source that are not given here. Primed or numbered codes have the meaning given here. Ends that are not written are not given here. bexarotene = RXR ligand attached at the C-terminus; adapalene = RARβ/γ ligand, attached at C-terminus; GW7647″ = PPARα ligand, attached at C-terminus; GW4064 = FXR ligand, attached at C-terminus
System: C2C12 myoblast cell line
Assay: C2C12 myoblast differentiation assay (creatine kinase)
Assay type: cell-based
Settings: 96 hours, relative to imm3SVD peptide (=100)
Description: C2C12 myoblast cell line (ATCC, Manassas, VA) was cultured in DMEM medium supplemented with 10% FBS and 1% penicillin/streptomycin. For differentiation, cells were cultured in the same medium, except that 10% FBS was replaced by 2% horse serum. Peptides and NR ligands were added at the indicated concentrations and cells were harvested 96 hours later for assay. Cell extracts were assayed for creatine kinase (CK) per mg protein. CK was measured using the ECPK-100 kit from BioAssay Systems (Hayward, CA). Protein was assayed using the BCA protein assay kit from Thermofisher Scientific (Waltham, MA). CK activities and p values were expressed relative to imm3SVD peptide (=100). **p<0.01; *p<00.05.

[1] = Peptide 0.66 uM, no added free ligand

Molecule	CK (units/mg) (Added ligand 2 uM together with imm3SVD peptide 0.66 uM)	CK (units/mg) [1]
CN1c2ccccc2N=C(c2ccc(C(=O)O)cc2)c2cc3c(cc21)C(C)(C)CCC3(C)C [HX600]	30.3 ± 16.0* % of imm3SVD peptide	–
imm3adp: KKGFYKKKQCRPSKGRKRGFCWSVDK C-terminally liganded with adapalene (RARß/γ ligand) (KKGFYKKKQCRPSKGRKRGFCWSVDK-adapalene; cysteine pairing not given here)	–	185.8 ± 23.5** % of imm3SVD peptide
imm3bex: SDKKGFYKKKQCRPSKGRKRGFCWSVDK C-terminally liganded with bexarotene (RXR ligand) (SDKKGFYKKKQCRPSKGRKRGFCWSVDK-bexarotene; cysteine pairing not given here)	–	121.0 ± 6.6* % of imm3SVD peptide
imm3fxr: SDKKGFYKKKQCRPSKGRKRGFCWSVDK C-terminally liganded with GW4064 (FXR ligand) (SDKKGFYKKKQCRPSKGRKRGFCWSVDK-GW4064; cysteine pairing not given here)	–	136.8 ± 19.6* % of imm3SVD peptide
imm3ppa: SDKKGFYKKKQCRPSKGRKRGFCWSVDK C-terminally liganded with GW7647 (PPARα ligand) (SDKKGFYKKKQCRPSKGRKRGFCWSVDK-{GW7647″}; cysteine pairing not given here)	–	155.9 ± 18.8** % of imm3SVD peptide

Reference: patent US20240285540A1, “FUNCTIONAL THERAPEUTIC INDEX IN THE TREATMENT OF PERIPHERAL IMMUNE DYSFUNCTION” (priority 2023, published 2024)
